Test results published in ChEMBL document CHEMBL1201862, “PubChem BioAssay data set” (2004).
Active and inactive are the calls of the source.

Tests used:
[1] = A cytotoxicity screen of small molecule inhibitors of the PhoP region in Salmonella typhi identified in the primary screen. [Related pubchem assays: 1850, 1864, 1985 ]; format: functional
[2] = biological target: T1, SUMO-activating enzyme (Homo sapiens, UniProt Q9UBT2); experiment: blockers of UBC9-mediated SUMO conjugation – biochemical, AlphaScreen, SUMOylation inhibitor project, confirmation (AID 2018); format: functional
T1 sequence (Q9UBE0 whole entry): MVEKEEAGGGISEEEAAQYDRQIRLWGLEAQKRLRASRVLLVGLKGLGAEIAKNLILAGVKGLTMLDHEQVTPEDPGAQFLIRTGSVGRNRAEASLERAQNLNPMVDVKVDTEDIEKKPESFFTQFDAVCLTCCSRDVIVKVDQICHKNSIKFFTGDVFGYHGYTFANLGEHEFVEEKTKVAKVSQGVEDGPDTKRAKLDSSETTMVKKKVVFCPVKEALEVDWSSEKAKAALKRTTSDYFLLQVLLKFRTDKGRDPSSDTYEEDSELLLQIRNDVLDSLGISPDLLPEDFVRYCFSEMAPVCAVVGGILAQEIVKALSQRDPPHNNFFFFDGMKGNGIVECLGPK
T1 sequence (Q9UBT2 whole entry): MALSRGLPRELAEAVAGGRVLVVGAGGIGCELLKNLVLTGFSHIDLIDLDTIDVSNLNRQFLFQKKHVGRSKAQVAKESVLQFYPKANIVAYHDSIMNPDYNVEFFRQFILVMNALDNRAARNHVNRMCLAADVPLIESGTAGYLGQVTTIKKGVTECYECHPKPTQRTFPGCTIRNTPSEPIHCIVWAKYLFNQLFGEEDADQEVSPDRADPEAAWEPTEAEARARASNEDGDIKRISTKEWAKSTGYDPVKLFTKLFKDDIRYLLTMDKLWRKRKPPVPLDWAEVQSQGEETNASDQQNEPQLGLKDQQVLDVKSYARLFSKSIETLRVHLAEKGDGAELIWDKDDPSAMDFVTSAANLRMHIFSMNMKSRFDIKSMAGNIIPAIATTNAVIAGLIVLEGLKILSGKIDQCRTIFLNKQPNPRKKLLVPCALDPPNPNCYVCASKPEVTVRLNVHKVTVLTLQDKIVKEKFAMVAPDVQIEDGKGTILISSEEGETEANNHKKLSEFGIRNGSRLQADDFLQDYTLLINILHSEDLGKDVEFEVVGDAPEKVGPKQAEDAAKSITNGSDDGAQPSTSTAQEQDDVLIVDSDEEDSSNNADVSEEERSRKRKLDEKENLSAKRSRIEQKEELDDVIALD

[3] = biological target: T1, SUMO-activating enzyme; experiment: blockers of SAE1/SAE2–UBC9 SUMO transfer – biochemical, HTRF, uHTS, primary screen (AID 2006); format: protein-complex assay
[4] = biological target: T2, Exodeoxyribonuclease V (Escherichia coli (strain K12), UniProt P04993+P07648+P08394); experiment: RecBCD inhibition via phage-restricted bacterial growth – absorbance, V66 E. coli, mutant T4 phage, counter-screen for AddAB inhibitor project, dose response (AID 492957); format: functional, cell-based, Escherichia coli str. K-12 substr. MG1655
T2 sequence (P04993 whole entry): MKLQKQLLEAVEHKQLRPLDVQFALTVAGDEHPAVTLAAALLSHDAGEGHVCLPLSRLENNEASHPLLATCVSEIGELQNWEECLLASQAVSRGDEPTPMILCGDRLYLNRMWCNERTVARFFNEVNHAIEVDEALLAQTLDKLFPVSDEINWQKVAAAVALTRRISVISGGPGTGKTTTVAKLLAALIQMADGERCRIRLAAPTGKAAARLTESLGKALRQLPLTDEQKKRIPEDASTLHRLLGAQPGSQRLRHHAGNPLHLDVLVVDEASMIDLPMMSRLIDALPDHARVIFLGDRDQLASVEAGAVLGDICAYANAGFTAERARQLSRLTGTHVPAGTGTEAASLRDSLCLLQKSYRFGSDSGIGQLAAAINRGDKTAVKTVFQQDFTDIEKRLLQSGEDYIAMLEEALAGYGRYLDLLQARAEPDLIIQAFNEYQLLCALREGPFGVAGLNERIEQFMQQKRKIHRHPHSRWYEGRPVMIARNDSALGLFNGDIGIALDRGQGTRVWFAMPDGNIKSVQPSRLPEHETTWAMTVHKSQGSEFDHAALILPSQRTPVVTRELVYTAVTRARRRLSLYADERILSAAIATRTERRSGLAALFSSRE
T2 sequence (P07648 whole entry): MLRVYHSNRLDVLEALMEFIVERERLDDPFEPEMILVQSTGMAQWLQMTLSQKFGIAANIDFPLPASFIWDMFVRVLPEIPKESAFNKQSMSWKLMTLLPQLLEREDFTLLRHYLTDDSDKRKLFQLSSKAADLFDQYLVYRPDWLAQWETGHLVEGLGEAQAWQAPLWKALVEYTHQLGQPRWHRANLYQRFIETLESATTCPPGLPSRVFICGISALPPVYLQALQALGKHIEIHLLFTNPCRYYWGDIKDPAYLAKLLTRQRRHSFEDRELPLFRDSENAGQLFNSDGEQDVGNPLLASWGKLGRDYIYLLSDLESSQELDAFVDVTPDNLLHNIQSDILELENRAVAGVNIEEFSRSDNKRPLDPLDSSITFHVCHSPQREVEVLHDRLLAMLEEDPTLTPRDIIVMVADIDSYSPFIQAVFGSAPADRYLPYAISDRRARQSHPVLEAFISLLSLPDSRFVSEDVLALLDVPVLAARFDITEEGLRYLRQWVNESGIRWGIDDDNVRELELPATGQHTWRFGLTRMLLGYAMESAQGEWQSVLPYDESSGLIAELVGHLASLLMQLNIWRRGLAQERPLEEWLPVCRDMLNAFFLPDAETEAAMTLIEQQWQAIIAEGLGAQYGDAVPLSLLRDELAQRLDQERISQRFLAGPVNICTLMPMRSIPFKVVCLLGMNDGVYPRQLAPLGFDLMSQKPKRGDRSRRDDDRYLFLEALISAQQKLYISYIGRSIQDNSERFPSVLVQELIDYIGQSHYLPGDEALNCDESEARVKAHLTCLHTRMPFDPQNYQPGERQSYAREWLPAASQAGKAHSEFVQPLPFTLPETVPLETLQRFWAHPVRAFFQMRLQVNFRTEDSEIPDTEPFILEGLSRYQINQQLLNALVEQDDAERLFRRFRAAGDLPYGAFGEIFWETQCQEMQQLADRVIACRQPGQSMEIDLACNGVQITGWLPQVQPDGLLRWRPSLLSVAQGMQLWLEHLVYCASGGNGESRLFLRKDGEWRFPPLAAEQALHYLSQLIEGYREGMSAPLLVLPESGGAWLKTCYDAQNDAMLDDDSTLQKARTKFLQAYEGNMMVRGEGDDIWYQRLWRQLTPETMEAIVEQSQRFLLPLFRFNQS
T2 sequence (P08394 whole entry): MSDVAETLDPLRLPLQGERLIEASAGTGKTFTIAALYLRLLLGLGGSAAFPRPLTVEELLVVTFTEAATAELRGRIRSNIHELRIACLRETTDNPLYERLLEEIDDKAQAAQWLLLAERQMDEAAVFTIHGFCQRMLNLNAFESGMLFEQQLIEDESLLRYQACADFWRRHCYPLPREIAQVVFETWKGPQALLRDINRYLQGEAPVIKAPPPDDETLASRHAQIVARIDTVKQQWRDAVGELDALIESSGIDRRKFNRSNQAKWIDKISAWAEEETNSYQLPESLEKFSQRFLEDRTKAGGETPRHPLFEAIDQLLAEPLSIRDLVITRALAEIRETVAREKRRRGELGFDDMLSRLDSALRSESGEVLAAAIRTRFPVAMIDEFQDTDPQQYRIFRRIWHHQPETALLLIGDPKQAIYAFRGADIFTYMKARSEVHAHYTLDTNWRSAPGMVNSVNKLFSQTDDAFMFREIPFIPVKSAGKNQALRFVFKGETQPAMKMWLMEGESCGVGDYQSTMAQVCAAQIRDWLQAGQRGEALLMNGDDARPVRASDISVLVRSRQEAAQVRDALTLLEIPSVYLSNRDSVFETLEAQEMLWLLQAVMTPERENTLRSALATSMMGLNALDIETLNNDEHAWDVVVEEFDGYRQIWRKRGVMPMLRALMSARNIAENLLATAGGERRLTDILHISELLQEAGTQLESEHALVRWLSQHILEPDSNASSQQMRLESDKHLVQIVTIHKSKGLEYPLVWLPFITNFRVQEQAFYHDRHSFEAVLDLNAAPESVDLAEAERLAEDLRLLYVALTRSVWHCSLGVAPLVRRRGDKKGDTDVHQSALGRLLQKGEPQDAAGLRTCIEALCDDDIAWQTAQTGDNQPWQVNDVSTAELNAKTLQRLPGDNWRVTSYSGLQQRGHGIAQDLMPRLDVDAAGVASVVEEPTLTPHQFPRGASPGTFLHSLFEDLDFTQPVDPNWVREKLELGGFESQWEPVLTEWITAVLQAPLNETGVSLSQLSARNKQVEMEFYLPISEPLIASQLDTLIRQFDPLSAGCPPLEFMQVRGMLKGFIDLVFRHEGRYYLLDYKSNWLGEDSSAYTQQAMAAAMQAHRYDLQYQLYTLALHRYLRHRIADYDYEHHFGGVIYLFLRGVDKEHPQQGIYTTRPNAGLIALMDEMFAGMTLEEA

[5] = Counterscreen for AddAB inhibitors: absorbance-based bacterial cell-based high throughput dose response assay for inhibitors of bacterial viability. [Related pubchem assays (depositor defined):AID435030, AID449728, AID449731, AID488942, AID488955, AID488956]; format: functional
[6] = biological target: Albumin (Bos taurus, UniProt P02769); experiment: Counterscreen for inhibitors of T-cell receptor (TCR)-CD3 interaction: Fluorescence-based biochemical high throughput dose response assay to identify inhibitors of T-cell receptor (TCR)-CD3 interaction using a TAMRA-labeled BSA probe.; format: functional
Chain of Albumin (P02769 whole entry): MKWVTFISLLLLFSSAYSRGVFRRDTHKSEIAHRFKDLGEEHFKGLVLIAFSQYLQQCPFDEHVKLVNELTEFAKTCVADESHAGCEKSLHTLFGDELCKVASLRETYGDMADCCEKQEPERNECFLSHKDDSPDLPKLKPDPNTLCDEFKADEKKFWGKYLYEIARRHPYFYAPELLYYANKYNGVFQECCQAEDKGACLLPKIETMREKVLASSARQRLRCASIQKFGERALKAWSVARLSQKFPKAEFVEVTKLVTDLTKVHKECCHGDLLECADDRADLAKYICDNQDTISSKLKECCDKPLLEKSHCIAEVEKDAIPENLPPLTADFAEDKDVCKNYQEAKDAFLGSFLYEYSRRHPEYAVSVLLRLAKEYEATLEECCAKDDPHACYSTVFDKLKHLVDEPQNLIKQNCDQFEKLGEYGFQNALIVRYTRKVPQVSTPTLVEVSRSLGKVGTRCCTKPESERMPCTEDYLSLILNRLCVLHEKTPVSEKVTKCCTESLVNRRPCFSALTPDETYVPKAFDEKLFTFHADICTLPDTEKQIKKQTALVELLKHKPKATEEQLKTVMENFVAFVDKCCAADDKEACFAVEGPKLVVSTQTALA

[7] = viability of HCT116 lacking mutant beta-catenin – cell-based, human colon tumor, dose response (AID 1045); format: functional;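 also: HCT116 colon tumor cells with beta catenin knocked out; cells exposed to compound for 60 hours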
[8] = biological target: T3, Coagulation factor XII (Homo sapiens, UniProt P00748); format: functional;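 also: activated factor XIIa alpha cleaving a fluorogenic AMC peptide substrate; inhibitor potency from loss of enzyme activity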
T3 sequence (P00748 whole entry): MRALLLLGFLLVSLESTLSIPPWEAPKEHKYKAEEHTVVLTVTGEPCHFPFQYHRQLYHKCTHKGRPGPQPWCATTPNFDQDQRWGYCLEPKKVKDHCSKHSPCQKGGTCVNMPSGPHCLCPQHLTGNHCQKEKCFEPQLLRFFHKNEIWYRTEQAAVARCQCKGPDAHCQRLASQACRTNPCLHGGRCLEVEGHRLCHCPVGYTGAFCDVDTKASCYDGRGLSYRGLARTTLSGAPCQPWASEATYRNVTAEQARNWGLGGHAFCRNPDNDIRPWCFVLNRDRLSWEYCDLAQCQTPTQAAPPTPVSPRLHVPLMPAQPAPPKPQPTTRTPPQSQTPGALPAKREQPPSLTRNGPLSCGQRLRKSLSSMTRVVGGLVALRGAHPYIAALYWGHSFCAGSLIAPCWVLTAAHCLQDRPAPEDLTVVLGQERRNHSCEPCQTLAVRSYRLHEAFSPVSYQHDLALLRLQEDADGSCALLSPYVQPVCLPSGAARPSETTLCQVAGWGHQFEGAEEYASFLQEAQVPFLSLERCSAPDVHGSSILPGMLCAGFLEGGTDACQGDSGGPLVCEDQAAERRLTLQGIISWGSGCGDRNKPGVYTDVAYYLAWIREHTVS

[9] = biological target: Prothrombin (Homo sapiens, UniProt P00734); experiment: Thrombin 1536 HTS Dose Response Confirmation. [Related pubchem assays: 1046 (Thrombin 1536 HTS; hits were confirmed in this assay)]; format: functional
[10] = A Cell Based Secondary Assay To Explore Cytotoxicity of Compounds that Sensitize Mycobacterium Tuberculosis to Beta-Lactam Antibiotics.; format: functional
[11] = biological target: T4, Heat shock factor protein 1 (Mus musculus, UniProt P38532); experiment: decrease of HSF1-responsive luciferase luminescence – cell-based, NIH3T3, dose retest, confirmation (AID 2382); format: functional;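 also: NIH3T3 fibroblasts with HSF1-driven luciferase reporter stressed by proteasome inhibitor MG132; luminescence from HSF1-driven luciferase expression after 8 hours of MG132 stress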
T4 sequence (P38532 whole entry): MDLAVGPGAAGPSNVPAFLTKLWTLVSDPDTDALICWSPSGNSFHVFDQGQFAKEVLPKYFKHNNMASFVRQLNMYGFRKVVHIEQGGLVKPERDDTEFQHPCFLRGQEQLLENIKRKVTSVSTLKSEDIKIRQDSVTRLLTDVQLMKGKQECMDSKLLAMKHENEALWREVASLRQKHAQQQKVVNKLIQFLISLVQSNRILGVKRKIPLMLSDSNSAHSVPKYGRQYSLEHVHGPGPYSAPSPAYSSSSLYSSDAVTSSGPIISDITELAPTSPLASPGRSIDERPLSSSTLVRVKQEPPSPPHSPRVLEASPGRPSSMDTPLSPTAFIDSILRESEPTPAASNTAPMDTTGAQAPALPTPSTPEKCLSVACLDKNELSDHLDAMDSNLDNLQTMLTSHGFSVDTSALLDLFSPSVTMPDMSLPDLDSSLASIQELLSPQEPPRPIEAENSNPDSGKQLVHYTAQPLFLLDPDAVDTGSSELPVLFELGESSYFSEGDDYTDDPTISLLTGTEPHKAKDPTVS

[12] = HEK-293T viability loss after treatment – luminescence, T-cell screen hits, cytotoxicity control for TCR NF-kB inhibitor project, dose response (AID 489026); format: functional, cell-based;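 also: cells exposed to compound about 14 hours before the viability readout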
[13] = tested on: INS1; experiment: INS-1E survival protection against cytokine death – cell-based, luminescence, retest, dose response (AID 449756); format: functional; settings: Rattus norvegicus;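 also: cell death triggered by IL-1 beta plus TNF-alpha plus IFN-gamma mixture; protective hits raise ATP signal compared with cytokine alone wells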
[14] = reduction of Shn3 3'UTR-driven luciferase in osteoblasts – cell-based, Clone20 osteoblasts, firefly luciferase, cherry-picked, dose response (AID 624132); format: functional;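 also: firefly luciferase luminescence from reporter carrying the Shn3 3'UTR in osteoblasts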
[15] = loss of viability in HepG2 cells – cell-based, CellTiter-Glo, cherry-picked, cytotoxicity control for Shn3 inhibitor project, dose response (AID 624134); format: functional
[16] = non-specific 3'UTR reporter inhibition in Clone20-Shn3RL – cell-based, Renilla luciferase, cherry-picked, counter-screen for Shn3 inhibitor project, dose response (AID 624133); format: functional

Which EC50 [1] does the source give for `CN(Cc1ccccc1O)CC1CCCN(CCc2ccc(Cl)cc2)C1` (stereo not given) here?
Its EC50 is > 50 µM (active).

With `COc1cccc(/C=C2/SC(=S)N(CC(=O)NNC(=O)c3ccccc3O)C2=O)c1` as the compound, how does the IC50 [2] read?
The IC50 was 29.4 µM (active).

What about the IC50 [3] of the same compound?
The IC50 was 11.8 µM (active).

What about the IC50 [4] of the same compound?
The IC50 was > 119 µM (inactive).

And the IC50 [5]?
Its IC50 is > 119 µM (inactive).

And the IC50 [6]?
The IC50 was > 94.1 µM (inactive).

Which results are given for `CCOC(=O)c1cc2sccc2n1CC(=O)N1c2ccccc2CC1C` (stereo not given)?
EC50 [7]: 445 µM (active); IC50 [8]: > 50 µM (inactive)

For `Cc1c(NC(=O)CSc2nc3ccccc3s2)c(=O)n(-c2ccccc2)n1C`, which IC50 [8] is on record?
Its IC50 is > 50 µM (inactive).

Which results are given for `CN(C)C(=O)CSc1nnc([C@@H](N)Cc2ccccc2)o1`?
IC50 [9]: > 50 µM (not active); IC50 [8]: > 50 µM (inactive)

Which EC50 [1] does the source give for `COC(=O)Cn1c(=O)c(C)nc2ccccc21` here?
Its EC50 is > 50 µM (active).

With `COCc1n[nH]c2c1C(c1c(F)cccc1Cl)C(C#N)=C(N)O2` (stereo not given) as the compound, how does the EC50 [1] read?
The EC50 was > 50 µM (active).

What does the source list for `C=C(C)C(=O)O[C@H]1C/C(C)=C\C(=O)/C=C(\C)[C@H](O)[C@@H]2OC(=O)C(=C)[C@@H]21`?
CC50 [10]: 3.71 µM (active); EC50 [11]: 8.1 µM (active); IC50 [12]: > 80 µM (inactive); AC50 [13]: 8.02 µM (active); AC50 [14]: 3.02 µM (active); AC50 [15]: 6.81 µM (active); AC50 [16]: 11.1 µM (active)
